Experimental findings from publication PMC6243185 (The Korean Journal of Parasitology, 2018) are described below.

Each structure is given as a SMILES string.

The target of this test is T1, AcCP (rAcCP) (Acanthamoeba castellanii, UniProt A1YJR6).
T1 sequence (A1YJR6 44-330): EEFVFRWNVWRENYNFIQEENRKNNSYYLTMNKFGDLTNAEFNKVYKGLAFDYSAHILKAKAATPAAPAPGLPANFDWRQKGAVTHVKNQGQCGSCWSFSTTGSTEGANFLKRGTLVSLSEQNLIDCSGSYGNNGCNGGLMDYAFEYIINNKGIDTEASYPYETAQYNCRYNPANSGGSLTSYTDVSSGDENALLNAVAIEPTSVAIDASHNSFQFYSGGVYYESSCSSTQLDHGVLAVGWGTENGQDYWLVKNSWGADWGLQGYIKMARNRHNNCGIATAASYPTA
As to the kind of experiment: inhibition of fluorogenic substrate hydrolysis. It counts as biochemical. To be noted: fully processed rAcCP; data not shown; covalent.

In the case of `CC(C)C[C@H](NC(=O)[C@H]1O[C@@H]1C(=O)O)C(=O)NCCCCN=C(N)N` [E-64, trans-epoxy-succinyl-L-leucylamido(4-guanidino)-butane], the “inhibition of fluorogenic substrate hydrolysis; active site titration” value is recorded as “The fully processed rAcCP was effectively inhibited by a cysteine protease inhibitor, E-64 (data not shown)”.
